Series [1] has as its system SH-SY5Y. Nature of the series: Neuroprotective activity against glutamate-induced neurotoxicity in human SH-SY5Y cells assessed as cell viability at 50 uM incubated for 30 mins prior to glutamate challenge measured after 24 hrs by MTT assay (reference value: 73.8 +/- 4.5%). The following applies: read-out: Activity. Format: functional. For orientation: Tetrazolium dyes change colour on reduction, which living cells bring about.

Series [2] has as its system SH-SY5Y. The series is described as follows: Neuroprotective activity against glutamate-induced neurotoxicity in human SH-SY5Y cells assessed as cell viability at 10 uM incubated for 30 mins prior to glutamate challenge measured after 24 hrs by MTT assay (reference value: 73.8 +/- 4.5%). Format: functional. As to conditions: read-out: Activity.
For series [3], the system named is SH-SY5Y. The series is described as follows: cells. The following applies: Homo sapiens, 24 h.
The nature of series [4]: Cytotoxicity against human SH-SY5Y cells assessed as cell viability at 30 uM after 24 hrs by MTT assay relative to control. In kind it is cell-based. As to conditions: read-out: Activity.
Series [5] has as its target Vascular endothelial growth factor receptor 1 (Homo sapiens) (UniProt P17948). The series is described as follows: Inhibition of VEGFR1 (unknown origin) at 0.5 uM relative to control.
Series [6] addresses T1, Aurora kinase A (Homo sapiens) (UniProt O14965).
T1 sequence (whole entry): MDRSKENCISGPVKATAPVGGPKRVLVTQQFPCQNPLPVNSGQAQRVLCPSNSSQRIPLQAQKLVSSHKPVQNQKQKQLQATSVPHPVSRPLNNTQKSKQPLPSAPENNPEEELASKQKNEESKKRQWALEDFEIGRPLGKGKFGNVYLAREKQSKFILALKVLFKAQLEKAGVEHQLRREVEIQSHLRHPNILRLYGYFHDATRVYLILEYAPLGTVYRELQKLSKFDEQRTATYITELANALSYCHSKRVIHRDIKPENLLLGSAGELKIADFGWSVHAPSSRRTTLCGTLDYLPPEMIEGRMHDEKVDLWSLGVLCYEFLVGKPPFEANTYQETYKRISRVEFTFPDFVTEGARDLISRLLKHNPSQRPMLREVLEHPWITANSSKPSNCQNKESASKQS
Nature of the series: Inhibition of Aurora A (unknown origin) at 0.5 uM relative to control.

In series [7] the target is Protein kinase C alpha type (Homo sapiens) (UniProt P17252). The series is described as follows: Inhibition of PKCalpha (unknown origin) at 0.5 uM relative to control.
Series [8] concerns the target Insulin-like growth factor 1 receptor (Homo sapiens) (UniProt P08069). The series is described as follows: Inhibition of IGF-1R (unknown origin) at 0.5 uM relative to control.
Series [9] addresses Aurora kinase B (Homo sapiens) (UniProt Q96GD4). The series is described as follows: Inhibition of Aurora B (unknown origin) at 0.5 uM relative to control.
For series [10], the target named is Insulin receptor (Homo sapiens) (UniProt P06213). The series is described as follows: Inhibition of IR (unknown origin) at 0.5 uM relative to control.
Sequence of Insulin receptor (Homo sapiens) (P06213 28-758 limits assumed): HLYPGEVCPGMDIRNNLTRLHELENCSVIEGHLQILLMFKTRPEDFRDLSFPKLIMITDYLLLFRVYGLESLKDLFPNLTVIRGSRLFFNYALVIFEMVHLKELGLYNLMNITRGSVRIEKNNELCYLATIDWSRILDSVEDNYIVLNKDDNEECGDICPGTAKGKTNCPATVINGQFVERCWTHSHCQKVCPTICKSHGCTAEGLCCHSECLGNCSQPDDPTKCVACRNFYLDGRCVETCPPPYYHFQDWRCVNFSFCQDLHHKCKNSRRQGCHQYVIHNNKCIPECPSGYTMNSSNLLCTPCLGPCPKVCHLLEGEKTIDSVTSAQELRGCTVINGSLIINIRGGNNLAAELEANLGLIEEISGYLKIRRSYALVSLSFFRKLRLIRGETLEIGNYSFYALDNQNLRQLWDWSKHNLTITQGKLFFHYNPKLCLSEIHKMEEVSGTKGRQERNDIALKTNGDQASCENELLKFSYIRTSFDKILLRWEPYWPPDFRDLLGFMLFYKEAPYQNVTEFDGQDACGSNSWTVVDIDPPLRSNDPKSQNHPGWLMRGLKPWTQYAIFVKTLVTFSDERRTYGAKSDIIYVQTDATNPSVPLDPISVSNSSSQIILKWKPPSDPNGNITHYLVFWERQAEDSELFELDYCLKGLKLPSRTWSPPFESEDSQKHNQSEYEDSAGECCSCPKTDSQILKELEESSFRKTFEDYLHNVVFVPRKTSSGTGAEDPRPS
Sequence of Insulin receptor (Homo sapiens) (P06213 763-1382 limits assumed): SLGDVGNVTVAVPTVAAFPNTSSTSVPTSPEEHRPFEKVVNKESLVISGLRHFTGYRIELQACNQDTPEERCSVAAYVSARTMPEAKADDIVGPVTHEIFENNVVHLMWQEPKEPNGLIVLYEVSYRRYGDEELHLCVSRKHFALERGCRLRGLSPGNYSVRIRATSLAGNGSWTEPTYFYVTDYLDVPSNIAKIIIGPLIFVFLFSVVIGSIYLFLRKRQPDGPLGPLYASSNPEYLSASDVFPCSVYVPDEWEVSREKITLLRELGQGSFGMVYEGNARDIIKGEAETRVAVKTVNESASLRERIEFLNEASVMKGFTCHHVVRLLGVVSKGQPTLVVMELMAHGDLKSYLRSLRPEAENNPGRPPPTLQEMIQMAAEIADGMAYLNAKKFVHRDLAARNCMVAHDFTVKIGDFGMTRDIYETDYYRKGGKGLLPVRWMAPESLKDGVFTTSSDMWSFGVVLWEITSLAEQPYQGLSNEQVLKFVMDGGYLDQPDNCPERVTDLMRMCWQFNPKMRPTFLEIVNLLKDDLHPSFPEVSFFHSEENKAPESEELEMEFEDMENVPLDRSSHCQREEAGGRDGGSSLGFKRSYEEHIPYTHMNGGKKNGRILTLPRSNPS
The target in series [11] is RAC-beta serine/threonine-protein kinase (Homo sapiens) (UniProt P31751). The series is described as follows: Inhibition of PKBbeta (unknown origin) at 0.5 uM relative to control.
Series [12] concerns the target Tyrosine-protein kinase ABL1 (Homo sapiens) (UniProt P00519). Nature of the series: Inhibition of Abl (unknown origin) at 0.5 uM relative to control.
The target of series [13] is AMP-activated protein kinase, AMPK (Homo sapiens) (UniProt P54646+O43741+P54619+Q9UGJ0+Q9Y478+Q13131+Q9UGI9). Nature of the series: Inhibition of AMPK (unknown origin) at 0.5 uM relative to control. Format: protein-complex assay.
Series [14] addresses Cyclin-dependent kinase 9 (Homo sapiens) (UniProt P50750). Nature of the series: Inhibition of CDK9 (unknown origin) at 0.5 uM relative to control.
For series [15], the target named is Glycogen synthase kinase-3 beta (Homo sapiens) (UniProt P49841). Nature of the series: Inhibition of GSK3beta (unknown origin) at 0.5 uM relative to control.
The target of series [16] is T2, Inhibitor of nuclear factor kappa-B kinase subunit beta (Homo sapiens) (UniProt O14920).
T2 sequence (whole entry): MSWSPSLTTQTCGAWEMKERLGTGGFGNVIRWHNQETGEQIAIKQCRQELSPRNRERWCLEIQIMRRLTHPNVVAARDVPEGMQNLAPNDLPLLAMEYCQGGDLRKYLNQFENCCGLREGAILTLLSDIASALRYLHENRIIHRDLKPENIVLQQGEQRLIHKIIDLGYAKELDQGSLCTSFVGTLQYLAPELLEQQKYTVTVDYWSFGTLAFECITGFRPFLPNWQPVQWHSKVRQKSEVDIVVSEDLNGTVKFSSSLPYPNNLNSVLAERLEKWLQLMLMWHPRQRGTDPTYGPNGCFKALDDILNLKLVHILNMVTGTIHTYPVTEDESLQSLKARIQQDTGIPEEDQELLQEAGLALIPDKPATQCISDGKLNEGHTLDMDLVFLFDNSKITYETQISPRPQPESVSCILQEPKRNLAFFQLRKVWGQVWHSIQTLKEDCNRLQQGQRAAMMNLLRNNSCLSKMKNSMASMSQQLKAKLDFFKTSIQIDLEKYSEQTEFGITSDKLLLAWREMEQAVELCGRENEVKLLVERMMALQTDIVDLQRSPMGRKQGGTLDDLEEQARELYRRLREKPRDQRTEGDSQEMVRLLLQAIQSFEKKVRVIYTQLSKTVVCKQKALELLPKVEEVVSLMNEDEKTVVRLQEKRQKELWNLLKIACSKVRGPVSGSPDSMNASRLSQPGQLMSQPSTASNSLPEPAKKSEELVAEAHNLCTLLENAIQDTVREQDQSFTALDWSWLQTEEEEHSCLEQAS
The series is described as follows: Inhibition of IKKbeta (unknown origin) at 0.5 uM relative to control.

In series [17] the target is Cyclin-dependent kinase 2 (Homo sapiens) (UniProt P24941). Nature of the series: Inhibition of CDK2 (unknown origin) at 0.5 uM relative to control.
The target in series [18] is Casein kinase I isoform alpha (Homo sapiens) (UniProt P48729). Nature of the series: Inhibition of CK1 (unknown origin) at 0.5 uM relative to control.
In series [19] the target is RAC-alpha serine/threonine-protein kinase (Homo sapiens) (UniProt P31749). Nature of the series: Inhibition of PKBalpha (unknown origin) at 0.5 uM relative to control.

We go through three compounds from ChEMBL document CHEMBL3596148, “Meridianin derivatives as potent Dyrk1A inhibitors and neuroprotective agents” (Bioorg Med Chem Lett, 2015).

Sequence of Cyclin-dependent kinase 9 (Homo sapiens) (P50750 whole entry): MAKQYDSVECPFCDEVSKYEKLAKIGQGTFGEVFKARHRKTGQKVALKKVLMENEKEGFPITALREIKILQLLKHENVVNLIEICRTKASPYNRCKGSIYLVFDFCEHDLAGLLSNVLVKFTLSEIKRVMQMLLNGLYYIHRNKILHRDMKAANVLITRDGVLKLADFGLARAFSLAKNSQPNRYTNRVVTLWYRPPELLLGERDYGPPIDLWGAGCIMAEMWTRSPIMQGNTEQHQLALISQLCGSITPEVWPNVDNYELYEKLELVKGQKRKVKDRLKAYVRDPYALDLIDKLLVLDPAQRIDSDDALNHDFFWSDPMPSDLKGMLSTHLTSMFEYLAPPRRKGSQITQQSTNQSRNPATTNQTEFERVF
Sequence of Vascular endothelial growth factor receptor 1 (Homo sapiens) (P17948 whole entry): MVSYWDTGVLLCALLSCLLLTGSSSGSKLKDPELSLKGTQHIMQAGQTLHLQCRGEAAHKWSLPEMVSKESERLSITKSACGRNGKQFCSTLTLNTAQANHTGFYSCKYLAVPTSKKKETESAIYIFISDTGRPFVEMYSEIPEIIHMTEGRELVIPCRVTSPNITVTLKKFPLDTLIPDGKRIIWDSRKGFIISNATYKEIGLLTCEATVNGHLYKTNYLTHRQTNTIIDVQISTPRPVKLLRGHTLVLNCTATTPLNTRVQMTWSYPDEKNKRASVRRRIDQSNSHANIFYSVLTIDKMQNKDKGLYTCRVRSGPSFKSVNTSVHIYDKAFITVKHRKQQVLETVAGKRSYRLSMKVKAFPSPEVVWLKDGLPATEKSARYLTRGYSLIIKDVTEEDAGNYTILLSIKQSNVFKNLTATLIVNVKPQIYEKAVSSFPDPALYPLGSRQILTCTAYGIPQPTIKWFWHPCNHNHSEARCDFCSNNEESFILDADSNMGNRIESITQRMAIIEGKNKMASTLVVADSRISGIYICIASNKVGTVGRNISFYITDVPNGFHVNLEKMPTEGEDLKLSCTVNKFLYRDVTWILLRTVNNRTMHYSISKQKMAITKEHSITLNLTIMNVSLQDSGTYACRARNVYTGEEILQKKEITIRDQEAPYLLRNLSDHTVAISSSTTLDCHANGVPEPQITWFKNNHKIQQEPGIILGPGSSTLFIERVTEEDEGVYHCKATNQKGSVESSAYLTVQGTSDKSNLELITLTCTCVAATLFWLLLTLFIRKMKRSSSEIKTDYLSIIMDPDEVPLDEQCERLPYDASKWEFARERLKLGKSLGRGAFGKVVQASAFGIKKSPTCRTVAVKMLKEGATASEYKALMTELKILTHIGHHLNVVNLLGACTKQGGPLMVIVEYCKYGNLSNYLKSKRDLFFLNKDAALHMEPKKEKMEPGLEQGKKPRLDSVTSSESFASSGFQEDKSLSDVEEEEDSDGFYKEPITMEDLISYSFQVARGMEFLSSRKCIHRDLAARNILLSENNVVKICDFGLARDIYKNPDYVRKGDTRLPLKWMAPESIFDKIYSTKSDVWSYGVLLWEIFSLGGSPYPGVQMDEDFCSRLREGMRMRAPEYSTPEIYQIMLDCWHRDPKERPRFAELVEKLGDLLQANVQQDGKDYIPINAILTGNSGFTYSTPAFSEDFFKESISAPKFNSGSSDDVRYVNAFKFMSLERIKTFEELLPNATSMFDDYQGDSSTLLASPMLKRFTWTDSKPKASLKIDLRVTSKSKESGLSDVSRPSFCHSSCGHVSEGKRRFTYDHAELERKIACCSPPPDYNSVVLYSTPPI
Sequence of Insulin-like growth factor 1 receptor (Homo sapiens) (P08069 31-736 limits assumed): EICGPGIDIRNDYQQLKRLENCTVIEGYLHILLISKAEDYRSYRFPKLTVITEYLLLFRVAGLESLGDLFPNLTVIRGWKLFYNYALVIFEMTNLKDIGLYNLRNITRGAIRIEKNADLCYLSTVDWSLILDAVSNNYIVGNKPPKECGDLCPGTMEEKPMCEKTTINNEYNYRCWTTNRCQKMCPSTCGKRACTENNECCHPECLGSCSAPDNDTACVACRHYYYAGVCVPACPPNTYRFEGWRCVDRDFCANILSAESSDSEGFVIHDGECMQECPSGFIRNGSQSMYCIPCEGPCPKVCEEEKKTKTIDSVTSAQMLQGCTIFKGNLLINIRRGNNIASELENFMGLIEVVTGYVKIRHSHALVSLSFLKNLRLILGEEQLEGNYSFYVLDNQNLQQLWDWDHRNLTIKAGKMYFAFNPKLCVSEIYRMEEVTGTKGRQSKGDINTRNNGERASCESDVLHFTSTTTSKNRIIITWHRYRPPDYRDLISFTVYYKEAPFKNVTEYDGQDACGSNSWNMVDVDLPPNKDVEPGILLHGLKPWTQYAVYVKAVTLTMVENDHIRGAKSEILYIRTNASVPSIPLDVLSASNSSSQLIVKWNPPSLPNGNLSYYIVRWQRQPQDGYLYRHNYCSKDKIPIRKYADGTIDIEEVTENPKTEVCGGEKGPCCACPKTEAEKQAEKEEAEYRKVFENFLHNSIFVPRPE
Sequence of Insulin-like growth factor 1 receptor (Homo sapiens) (P08069 741-1367 limits assumed): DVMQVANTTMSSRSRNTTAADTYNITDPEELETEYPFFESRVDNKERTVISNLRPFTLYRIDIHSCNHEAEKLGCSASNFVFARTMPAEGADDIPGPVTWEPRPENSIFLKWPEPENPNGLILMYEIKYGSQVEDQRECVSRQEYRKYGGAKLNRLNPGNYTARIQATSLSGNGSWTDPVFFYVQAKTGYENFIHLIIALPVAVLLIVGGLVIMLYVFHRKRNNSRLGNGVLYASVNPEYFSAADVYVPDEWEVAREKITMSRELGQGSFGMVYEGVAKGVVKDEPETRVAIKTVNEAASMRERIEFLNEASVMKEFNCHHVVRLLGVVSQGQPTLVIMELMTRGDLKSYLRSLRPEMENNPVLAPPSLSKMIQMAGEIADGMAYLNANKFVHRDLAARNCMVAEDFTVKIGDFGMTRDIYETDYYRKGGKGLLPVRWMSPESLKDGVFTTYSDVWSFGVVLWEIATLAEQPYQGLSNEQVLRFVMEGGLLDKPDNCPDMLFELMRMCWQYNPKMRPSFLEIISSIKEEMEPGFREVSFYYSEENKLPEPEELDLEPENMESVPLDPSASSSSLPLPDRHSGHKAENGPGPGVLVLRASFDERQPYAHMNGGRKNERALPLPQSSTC

The IC50 is the point on the concentration scale where inhibition reaches its midpoint. A lower IC50 goes with greater potency. For the compound `Nc1nccc(-c2cn(C(=O)c3ccccc3)c3ccc(Br)cc23)n1`, the viability at 50 µM with SH-SY5Y [1] amounted to 94.1%. Besides, the viability at 10 µM with SH-SY5Y [2] is 93.2%. For the same compound, in the series with SH-SY5Y [3], the IC50 is over 100 µM. Besides, the viability at 24 h, 30 µM in series [4] is 65.1%.
The compound `Nc1nccc(-c2cn(S(=O)(=O)c3ccc(C(F)(F)F)cc3[N+](=O)[O-])c3ccc(Br)cc23)n1` returned an IC50 in the series on SH-SY5Y [3] of 14 µM. For the same compound, in series [4], the viability at 24 h, 30 µM amounted to 15.2%.
Usually inhibition stands for the change of the read-out against control, counted positive when it falls. For the compound `Nc1nccc(-c2c[nH]c3ccccc23)n1`, the inhibition in series [5] came out at 8%; in [6] it was 5.1%; in [7], 8.5%; in [8], 0%; in series [9] it was 4.1%; in series [10] it was 9.6%. Moreover, the inhibition stood at 0% in series [11]; 7.1% in [12]; 0% in series [13]; 3.8% in [14]; 0% in series [15]; 16.6% in series [16]. Further, the inhibition in series [17] worked out at 0%; in series [18] it was 0%; in [19] it was 22.3%. In [4], the viability at 24 h, 30 µM turned out to be 91.4%.
